Data published in patent publication US6133311A, “Method for preventing or treating elevated blood lipid level-related diseases by administering natural phenolic compounds” (priority 1998, dated 2000).

Molecular target: T1, HMG-CoA reductase (Rattus norvegicus, UniProt P51639)
T1 construct: from tissue; host or cells: rat liver microsomes
T1 sequence (P51639 1-887): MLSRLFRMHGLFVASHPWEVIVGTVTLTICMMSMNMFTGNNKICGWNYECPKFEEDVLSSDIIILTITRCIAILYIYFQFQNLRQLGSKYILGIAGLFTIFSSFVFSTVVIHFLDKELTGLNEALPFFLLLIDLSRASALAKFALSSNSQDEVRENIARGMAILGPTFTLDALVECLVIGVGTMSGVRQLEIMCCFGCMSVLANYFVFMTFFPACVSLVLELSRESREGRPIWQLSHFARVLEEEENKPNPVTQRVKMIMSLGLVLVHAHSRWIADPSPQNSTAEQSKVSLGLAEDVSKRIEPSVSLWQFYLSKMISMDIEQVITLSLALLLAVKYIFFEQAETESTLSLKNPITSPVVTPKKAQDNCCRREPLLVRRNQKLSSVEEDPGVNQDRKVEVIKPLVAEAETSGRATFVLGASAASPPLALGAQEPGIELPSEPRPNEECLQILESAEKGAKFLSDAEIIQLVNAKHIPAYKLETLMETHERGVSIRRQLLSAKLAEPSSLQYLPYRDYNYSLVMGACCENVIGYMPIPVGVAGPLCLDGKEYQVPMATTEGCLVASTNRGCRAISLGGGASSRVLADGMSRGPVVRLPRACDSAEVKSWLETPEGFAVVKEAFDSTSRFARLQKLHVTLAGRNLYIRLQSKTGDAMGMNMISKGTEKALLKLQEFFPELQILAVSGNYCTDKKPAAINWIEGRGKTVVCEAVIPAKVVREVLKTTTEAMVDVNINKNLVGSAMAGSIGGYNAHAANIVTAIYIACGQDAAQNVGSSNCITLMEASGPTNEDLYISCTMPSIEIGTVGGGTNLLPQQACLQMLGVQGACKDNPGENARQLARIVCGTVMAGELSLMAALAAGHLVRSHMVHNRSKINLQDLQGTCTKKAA
Experiment: HMG-CoA reductase inhibition in liver microsomes of fed rats
Type: biochemical
Conditions: liver microsomes of rats fed 0.1% compound, vs Control
Method: Activity of tannin or gallic acid in HMG-CoA Reductase Inhibition
In order to determine the activity of HMG-CoA reductase, Hulcher's method was employed after some modification (see J. Lipid Res., 14, 625-641 (1973)). In this method, the concentration of the coenzyme-A (CoA-SH), which is produced when HMG-COA is reduced to a mevalonate salt by the action of HMG-COA reductase, is determined by spectroscopy and the activity of HMG-CoA reductase is calculated therefrom.
(Step 1) Preparation of microsomes
3 g of liver tissue taken from each group of rats of Example 2 was washed successively with 100 ml of a cold Saline (0.15M NaCl) and 100 ml of a cold buffer solution A (0.1M triethanolamine, HCl/0.2M EDTA/2 mM dithiothreitol (DTT)). The cold buffer solution A was added to the liver tissue in an amount of 2 ml per 1 g of the liver tissue and the mixture was homogenized with a homogenizer. […]
Then, the reactant was mixed with 20 μl of DTNB buffer solution (3mM DTNB/0.1M triethanolamine/0.2M EDTA, pH 7.4) and the absorbance of the mixture was determined at 412 nm to calculate the amount of CoA-SH (activity of HMG-COA reductase).
The extent of inhibition of HMG-CoA reductase activity by tannin and gallic acid were calculated based on the above result.

| Compound | Inhibition of HMG-CoA reductase activity |
| --- | --- |
| tannin | 23.5% |
| O=C(O)c1cc(O)c(O)c(O)c1 [Gallic acid, gallic acid] | 6.0% |
